From patent US20090068290A1, “BIFEPRUNOX DOSES FOR TREATING SCHIZOPHRENIA” (priority 2006, published 2009)

Test system: adult subjects with schizophrenia
Experiment: Adverse events (TEAE, SAE, discontinuation, EPS-related TEAE, anticholinergic use), Clinical Study One
Assay type: in vivo, human
Details: for safety and tolerability: bifeprunox 5, 10, 20 mg, 6 weeks
Protocol: METHODOLOGY: This was a randomized, double-blind, fixed-dose, placebo-controlled, risperidone-referenced, parallel group, multi-center study in adult subjects with schizophrenia. There were five treatment groups in this study. […] Study medication was administered once daily. After Baseline measurements were performed, the titration phase was begun. Bifeprunox treated subjects were titrated up to 5 mg, 10 mg or 20 mg according to a standardized titration schedule (Day 1: 0.125 mg, Day 2: 0.25 mg, Day 3: 0.5 mg, Day 4: 1.0 mg, Day 5: 2.0 mg, Day 6: 5.0 mg, Day 7: 10.0 mg, Day 8: 20 mg).

O=c1[nH]c2cccc(N3CCN(Cc4cccc(-c5ccccc5)c4)CC3)c2o1 [Bifeprunox, 7-[4-([1,1′-biphenyl]-3-ylmethyl)-1-piperazinyl]-2(3H)-benzoxazolone]
Anxiety Aggravated, % (BX 5 mg): (3%) | Anxiety, % (BX 5 mg): (5%) | Confusion, % (BX 5 mg): (<1%) | DIZZINESS, % (BX 5 mg): (14%) | DYSKINESIA, % (BX 5 mg): (<1%) | EXTRAPYRAMIDAL DISORDER, % (BX 5 mg): (1%) | Gait Abnormal Nos, % (BX 5 mg): (<1%) | Headache Nos, % (BX 5 mg): (30%) | PSYCHIATRIC DISORDERS, % (BX 5 mg): (41%) | Parkinsonian Rest Tremor, % (BX 5 mg): (<1%) | SEDATION, % (BX 5 mg): (5%) | SOMNOLENCE, % (BX 5 mg): (3%) | Syncope, % (BX 5 mg): (<1%) | TREMOR, % (BX 5 mg): (3%) | Trismus, % (BX 5 mg): (<1%) | Agitation Aggravated, % (BX 10 mg): (4%) | Agitation, % (BX 10 mg): (9%) | Anxiety Aggravated, % (BX 10 mg): (3%) | Anxiety, % (BX 10 mg): (10%) | DIZZINESS, % (BX 10 mg): (10%) | DYSKINESIA, % (BX 10 mg): (<1%) | Gait Abnormal Nos, % (BX 10 mg): (2%) | Headache Nos, % (BX 10 mg): (35%) | Hyperactivity Syndrome Aggravated, % (BX 10 mg): (<1%) | Loss of Propriception, % (BX 10 mg): (<1%) | Migraine Nos, % (BX 10 mg): (<1%) | PSYCHIATRIC DISORDERS, % (BX 10 mg): (32%) | SEDATION, % (BX 10 mg): (8%) | SOMNOLENCE, % (BX 10 mg): (2%) | Syncope, % (BX 10 mg): (3%) | TARDIVE DYSKINESIA, % (BX 10 mg): (<1%) | Adjustment Disorder Nos, % (BX 20 mg): (<1%) | Affect Lability, % (BX 20 mg): (<1%) | Aggression, % (BX 20 mg): (<1%) | Agitation Aggravated, % (BX 20 mg): (<1%) | Agitation, % (BX 20 mg): (11%) | Anxiety Aggravated, % (BX 20 mg): (2%) | Anxiety, % (BX 20 mg): (6%) | Bruxism, % (BX 20 mg): (<1%) | Confusion, % (BX 20 mg): (<1%) | DIZZINESS, % (BX 20 mg): (7%) | DYSARTHRIA, % (BX 20 mg): (<1%) | Disturbance in Attention, % (BX 20 mg): (<1%) | Dystonia, % (BX 20 mg): (<1%) | EXTRAPYRAMIDAL DISORDER, % (BX 20 mg): (2%) | Headache Nos, % (BX 20 mg): (25%) | Hypoaesthesia, % (BX 20 mg): (<1%) | Memory Impairment, % (BX 20 mg): (3%) | Oculogyric Crisis, % (BX 20 mg): (<1%) | PSYCHIATRIC DISORDERS, % (BX 20 mg): (40%) | Parkinsonism, % (BX 20 mg): (<1%) | SEDATION, % (BX 20 mg): (9%) | SOMNOLENCE, % (BX 20 mg): (5%) | Syncope, % (BX 20 mg): (2%) | TARDIVE DYSKINESIA, % (BX 20 mg): (<1%) | TREMOR, % (BX 20 mg): (<1%) | subjects with at least one AE that led to discontinuation (bifeprunox 5 mg): 11% | subjects with at least one TEAE (bifeprunox 5 mg): 89% | subjects with at least one AE that led to discontinuation (bifeprunox 10 mg): 14% | subjects with at least one TEAE (bifeprunox 10 mg): 87% | incidence of aggravated schizophrenia NOS (SAE) (bifeprunox 20 mg): 7% | subjects with at least one AE that led to discontinuation (bifeprunox 20 mg): 10% | subjects with at least one TEAE (bifeprunox 20 mg): 83% | subjects with at least one severe TEAE (bifeprunox 20 mg): 10% | suicide attempt (bifeprunox 20 mg): 2% | safety and tolerability: safe and well tolerated at all dose levels | safety and tolerability (listed as bifeprunox): safe and well tolerated | subjects with at least one SAE (bifeprunox groups (5, 10, 20 mg)): 12-15% | rates of EPS (bifeprunox, 6 weeks (Example 4)): comparable to placebo
